# Assay results as given in patent US20230398334A1, “COATED BALLOON CATHETER FOR TREATING ARTERIOVENOUS FISTULA AND METHODS OF USING SAME” (Alucent Biomedical, Inc., priority 2022, published 2023).
# System: arteriovenous fistula (AVF)
# Assay: Treatment of an AVF with the active agent (NVS treatment)
# Type: in vivo
smiles,measurement,value
"NCCOCCOCCNc1ccc2c3c(cccc13)C(=O)N(CCOCCOCCN1C(=O)c3cccc4c(NCCOCCOCCN)ccc(c34)C1=O)C2=O [Compound of Formula (I), 2,2′-((ethane-1,2-diylbis(oxy))bis(ethane-2,1-diyl))bis(6-((2-(2-(2-aminoethoxy)ethoxy)ethyl)amino)-1H-benzo[de]isoquinoline-1,3(2H)-dione)]",AVF open lumen area,significant increase
same,area of neointimal hyperplasia,without significantly affecting
